In brackets after ≈: the same amount, converted by molar mass. Several values for one entry are separate records, joined by “and”; a condition that tells them apart may be missing. Equal entries are not always repeated. Structures can show the parent of a compound that is named as a salt. Where two headings read alike, the source gives them in different places.
How the values were obtained:
[1] = test system: SVMP activity of five viper venoms; assay: SVMP fluorogenic substrate assay, summary across the panel of five viper venoms; format: biochemical; settings: for EC50: five venoms
Protocol: (§1) Daughter plates and assay-ready plates were stored at −20°C, with the latter used within a month of creation. For SVMP assay-ready plates, 0.91 µL of each drug from the respective daughter plate was plated, such that in the final assay volume of 91 μL, a final concentration of 10 µM was reached. […] In secondary screening, dose response curves were created, with a top final assay concentration of 10 µM and reaching sub-nanomolar concentrations (concentration range was dependent on specific plate layout), with each concentration tested in duplicate.
(§2) The SVMP activity of crude venom in the presence of inhibitors or vehicle control (DMSO) was measured using a quenched fluorogenic substrate (substrate for MMPs, ADAMs and Cathepsins, Cat no: ES010, Bio-Techne). […] Reactions consisted of 1 µg of venom in 15 µL PBS co-incubated with 0.91 µL of inhibitor at a concentration of 1 mM. […] The plates were read on a CLARIOstar microplate reader (BMG Labtech), at an excitation wavelength of 320–10 nm and emission wavelength of 420–10 nm with 10 flashes per well at 25°C, at a pre-defined end read time. The end-read times were selected independently for each venom, as the plateau point for the venom + vehicle control (maximum fluorescence) identified in an initial 1-h kinetic read.
(§3) The SVMP activity for the end-read data was calculated for each test condition as a percentage of the mean of the venom + vehicle wells (100% activity), with a baseline of the marimastat 10 µM controls representing 0% activity (Supplementary Equation S1).

patients [2] = test system: patients; design: method as in Conatus Pharmaceuticals Inc, 2012; settings: 30 mg per day for up to 24 weeks; ref Conatus Pharmaceuticals Inc, 2012; cited from earlier work
[3] = test system: SVMP activity of Crotalus atrox venom; assay: SVMP fluorogenic substrate assay, C. atrox venom; settings: read-out: EC50, known inhibitors validation screen, 30-min endpoint
Protocol: as §1, §2, §3

[4] = test system: SVMP activity of Echis ocellatus venom; assay: SVMP fluorogenic substrate assay, E. ocellatus venom; format: biochemical; settings: for EC50: E. ocellatus venom, 20-min endpoint, N/A = did not cross 50% inhibition at any dose, read-out: EC50, known inhibitors validation screen; for activity at the top dose tested: top 10 µM dose, negative control drugs
Protocol: as §1, §2, §3

[5] = test system: SVMP activity of Bothrops jararaca venom; assay: SVMP fluorogenic substrate assay, B. jararaca venom; format: biochemical; settings: 30-min endpoint, read-out: EC50, known inhibitors validation screen
Protocol: as §1, §2, §3

[6] = test system: SVMP activity of Calloselasma rhodostoma venom; assay: SVMP fluorogenic substrate assay, C. rhodostoma venom; format: biochemical; settings: 20-min endpoint, read-out: EC50, known inhibitors validation screen
Protocol: as §1, §2, §3

[7] = test system: SVMP activity of Bitis arietans venom; assay: SVMP fluorogenic substrate assay, B. arietans venom; format: biochemical; settings: 40-min endpoint, read-out: EC50, known inhibitors validation screen
Protocol: as §1, §2, §3

[8] = design: method as in MedChemExpress; settings: ref MedChemExpress; cited from earlier work
5 alpha Reductase = target: 5 alpha Reductase; design: method as in MedChemExpress; settings: benign prostatic hyperplasia, ref MedChemExpress, cited from earlier work
5-HT2C = test system: 5-HT2C; design: method as in MedChemExpress; settings: IP accumulation assays; ref MedChemExpress; read-out: IC50, 5-HT2C partial inverse agonist; cited from earlier work
5-HT2B = test system: 5-HT2B; design: method as in MedChemExpress; settings: IP accumulation assays; ref MedChemExpress; read-out: IC50, 5-HT2B inverse agonist; cited from earlier work
5-HT2A = test system: 5-HT2A; design: method as in MedChemExpress; settings: IP accumulation assays; ref MedChemExpress; read-out: IC50, 5-HT2A inverse agonist; cited from earlier work
[9] = design: method as in Williams et al., 2011b; settings: ref Williams et al., 2011b; cited from earlier work
patients [10] = test system: patients; design: method as in Bissett et al., 2005; settings: ref Bissett et al., 2005, cited from earlier work
[11] = validation screen, read-out: EC50 range across all venoms, known inhibitors
[12] = validation screen, read-out: average EC50 across all venoms
[13] = read-out: EC50 against each of the venoms, secondary screen

S=C(N/N=C1\CCCc2cccnc21)N1CCN(c2ccccn2)CC1 [COTI-2]
fold superiority of EC50 to dimercaprol ([1]; across all venoms, secondary screen): > 2 fold | EC50 ([1]; read-out: EC50 range across all venoms, secondary screen): 185 to 640 nM

O=C(NO)C1(CS(=O)(=O)c2ccc(Oc3ccc(Cl)cc3)cc2)CCOCC1 [CTS-1027]
adverse events in Phase II trials (patients [2]): a range of serious adverse events

O=S(=O)(O)CC(S)CS (stereo not shown) [DMPS, 2,3-dimercapto-1-propane-sulfonic acid sodium salt monohydrate]
EC50 [3]: 3260 nM | EC50 [4]: 959 nM | EC50 [1, 11]: 527 to 5280 nM | EC50 [1, 12]: 2250 nM | EC50 [5]: 527 nM | EC50 [6]: 5280 nM | EC50 [7]: 1210 nM

C[C@]12C=CC(=O)N[C@@H]1CC[C@@H]1[C@@H]2CC[C@]2(C)[C@@H](C(=O)Nc3cc(C(F)(F)F)ccc3C(F)(F)F)CC[C@@H]12 [Dutasteride]
Solubility in DMSO [8]: 63.06 mM (≈ 33.3 mg/mL)

CC(C)(C)NC(=O)[C@H]1CC[C@H]2[C@@H]3CC[C@H]4NC(=O)C=C[C@]4(C)[C@H]3CC[C@]12C [Finasteride]
Ki (5 alpha Reductase; epithelium, read-out: Ki, 5alpha-reductase activity in epithelium): 10 nM | Ki (5 alpha Reductase; stroma, read-out: Ki, 5alpha-reductase activity in stroma): 33 nM | Solubility in DMSO [8]: 150 mg/mL and 402.64 mM

COc1ccc(NC(=O)Nc2ccc(F)cc2F)cc1-c1c(Br)cnn1C [Nelotanserin]
IC50 (5-HT2C): 79 nM | IC50 (5-HT2B): 791 nM | IC50 (5-HT2A): 1.7 nM | Solubility in DMSO [8]: ≥ 32 mg/mL and ≥ 73.19 mM

COCCOC(=O)N1CCN(S(=O)(=O)c2cc(F)c(Oc3ccc(Cl)cc3)c(F)c2)C(C(=O)NO)C1 (stereo not shown) [XL-784]
aqueous solubility [9]: 20 µg/mL (≈ 36.4 µM)

CNC(=O)[C@H](Cc1ccccc1)NC(=O)[C@H](CC(C)C)[C@H](CSc1cccs1)C(=O)NO [batimastat, (2R,3S)-N4-Hydroxy-N1-[(1S)-2-(methylamino)-2-oxo-1-(phenylmethyl)ethyl]-2-(2-methylpropyl)-3-[(2-thienylthio)methyl]butanediamide]
EC50 [3]: 15.4 nM | EC50 [4]: 6.23 nM | EC50 [5]: 5.57 nM | EC50 [6]: 42 nM | EC50 [7]: 2.49 nM

O=C(/C=C/c1cccc(S(=O)(=O)Nc2ccccc2)c1)NO [belinostat]
EC50 [1, 13]: > 1000 nM

NS(=O)(=O)c1cc2c(cc1Cl)N=CNS2(=O)=O [chlorothiazide]
EC50 [1, 13]: > 1000 nM

OCC(S)CS (stereo not shown) [dimercaprol, 2,3-dimercapto-1-propanol]
EC50 [3]: 4890 nM | EC50 [4]: 1120 nM and 1130 nM | EC50 [1, 11]: 558 to 6860 nM | EC50 [1, 12]: 3140 nM | EC50 [5]: 558 nM | EC50 [6]: 6860 nM | EC50 [7]: 2290 nM

CNC(=O)[C@@H](NC(=O)[C@H](CC(C)C)[C@H](O)C(=O)NO)C(C)(C)C [marimastat, (2S,3R)-N4-[(1S)-2,2-Dimethyl-1-[(methylamino)carbonyl]propyl]-N1,2-dihydroxy-3-(2-methylpropyl)butanediamide]
EC50 [3]: 12 nM | EC50 [4]: 4.99 nM | EC50 [5]: 7.46 nM | EC50 [6]: 27.7 nM | EC50 [7]: 2.36 nM

OCCN1C[C@H](O)[C@@H](O)[C@H](O)[C@H]1CO [miglitol]
EC50 [1, 13]: > 1000 nM

CS(=O)(=O)O.N=C(N)c1ccc2cc(OC(=O)c3ccc(N=C(N)N)cc3)ccc2c1 [nafamostat, (6-Carbamimidoylnaphthalen-2-yl)4-(diaminomethylideneamino)benzoate methanesulfonic acid]
activity at the top dose tested [4]: no activity

CC1(C)SCCN(S(=O)(=O)c2ccc(Oc3ccncc3)cc2)[C@H]1C(=O)NO [prinomastat, prinomastat hydrochloride]
EC50 [3]: 19.8 nM | EC50 [4]: 4.35 nM | toxicity observed in Phase III trials (patients [10]; 15 mg bi-daily dosing for 3–36 months): musculoskeletal toxicity was observed in a significant proportion of patients | thromboembolic risk in Phase III trials (patients [10]; cancer patients receiving combination chemotherapy): increased risk of venous thromboembolic disease | EC50 [5]: 9.53 nM | EC50 [6]: 36.7 nM | EC50 [7]: 2.42 nM

Cn1c(=O)cc(N2CCC[C@@H](N)C2)n(Cc2cc(F)ccc2C#N)c1=O [trelagliptin (succinate), trelagliptin]
EC50 [1, 13]: > 1000 nM

CCc1c(C(=O)C(N)=O)c2c(OCC(=O)O)cccc2n1Cc1ccccc1 [varespladib, 2-[[3-(2-Amino-2-oxoacetyl)-2-ethyl-1-(phenylmethyl)-1H-indol-4-yl]oxy]-acetic acid]
activity at the top dose tested [4]: no activity

— article PMC10808794, “Snakebite drug discovery: high-throughput screening to identify novel snake venom metalloproteinase toxin inhibitors” (Frontiers in Pharmacology, 2024)
